According to patent US9102688B2, “Sulfonaminoquinoline hepcidin antagonists” (Vifor (International) AG, priority 2011, dated 2015):

Biological target: T1, human ferroportin (Homo sapiens, UniProt Q9NP59)
T1 construct: expressed in transfected cells
T1 sequence (Q9NP59 1-571): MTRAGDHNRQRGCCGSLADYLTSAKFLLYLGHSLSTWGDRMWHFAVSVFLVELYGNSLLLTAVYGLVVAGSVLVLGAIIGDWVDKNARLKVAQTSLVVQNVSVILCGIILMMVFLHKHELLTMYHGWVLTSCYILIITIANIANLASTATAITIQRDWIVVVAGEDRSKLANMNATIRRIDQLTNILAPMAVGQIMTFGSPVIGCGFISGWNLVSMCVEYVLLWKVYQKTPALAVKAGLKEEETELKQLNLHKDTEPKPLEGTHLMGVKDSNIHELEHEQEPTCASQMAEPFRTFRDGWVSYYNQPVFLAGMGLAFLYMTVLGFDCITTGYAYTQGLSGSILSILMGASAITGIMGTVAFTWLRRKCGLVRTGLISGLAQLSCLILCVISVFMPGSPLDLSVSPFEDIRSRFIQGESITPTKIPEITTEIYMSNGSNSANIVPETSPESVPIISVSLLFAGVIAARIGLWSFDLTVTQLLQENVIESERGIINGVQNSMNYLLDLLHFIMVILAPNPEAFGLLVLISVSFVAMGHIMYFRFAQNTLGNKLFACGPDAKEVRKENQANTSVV
Assay: ferroportin internalization assay (inhibition of hepcidin-induced internalization of Fpn)
Assay type: cell-based
Conditions: MDCK-FPN-HaloTag cells, 100 nM hepcidin, overnight incubation; concentration range from 0.04 to 40 μM
Experimental: The hepcidin-antagonistic action of the sulfonaminoquinoline compounds of the present invention was determined by means of the “ferroportin internalization assay” described in the following.
Organic compounds of low molecular weight which counteract the biological actions of hepcidin on its receptor, the iron exporter ferroportin (Fpn), were identified on the basis of their ability to inhibit hepcidin-induced internalization of Fpn in living cells. For this purpose, a stable cell line (Madin-Darby canine kidney, MDCK) was produced which constitutively expresses human ferroportin fused recombinantly at its C terminus with a fluorescent reporter protein (HaloTag®, Promega Corp.). The internalization of Fpn was monitored by labelling these cells with fluorescent ligands (HaloTag®-TMR, tetramethylrhodamine) which join covalently on to the HaloTag reporter gene fused with the Fpn. […] Optimized image analysis algorithms were used to ascertain the cell surface and to quantify the corresponding membrane fluorescence associated with the Fpn-HaloTag fusion protein. This assay allows a quantitative image-based analysis in order to quickly evaluate compounds which can block hepcidin-induced internalization of Fpn. This assay is a direct in vitro pendant of the in vivo action mechanism proposed for medicament candidates and is therefore suitable as an initial assay with a high throughput for identifying compounds which counteract the action of hepcidin on its receptor ferroportin.
• 7,500 cells per well (MDCK-FPN-HaloTag) were transinoculated in 50 μl of DMEM medium (Dulbeccos Modified Eagle Medium with 10% foetal bovine serum (FBS), which contained 1% penicillin, 1% streptomycin and 450 μg/ml of G-418) in microtitre plates with 384 wells (384 Cell carrier plates, Perkin Elmer, cat. no. 6007430), followed by incubation overnight at 37° C./5% CO2. • The volume of the medium was reduced to 10 μl, and 10 μl of 5 μM HaloTag-TMR ligands (Promega, cat. no. G 8251) were added in DMEM medium in order to stain the Fpn-HaloTag fusion protein. • 15 min incubation at 37° C./5% CO2 • The HaloTag-TMR ligand was removed and the cells were washed with fresh DMEM medium and the volume was reduced to 20 μl of DMEM medium. • 3 μl per well of a solution of the test compound (dissolved DMSO) were added ([…]). • 7 μl of […] hepcidin (Peptides International, cat. no. PLP-4392-s, 100 μM stock solution diluted in water in DMEM medium) were added per well up to a final hepcidin concentration of 100 nM. • The cells were incubated overnight at 37° C./5% CO2. • The cells were fixed by adding paraformaldehyde (PFA, Electron Microscopy Sciences, cat. no. 15710-S) directly to the cells up to a final concentration of 4%, followed by incubation at room temperature for 15-20 minutes. • The PFA solution was removed and the cells were washed with PBS (phosphate-buffered saline solution), in each case 30 μl remaining in the plate. • 20 μl of Draq5 (Biostatus, cat. no. DR 51000) were added up to a final concentration of 2.5 μM in order to stain the cell nuclei, and the plates were sealed with a foil plate seal. • The plates were analysed with the Opera Plate Imager (Opera Confocal Plate Imager, Perkin Elmer) with 7 images per well; 440 ms exposure time per image, […] focal point height.

Compound | IC50
O=S(=O)(Nc1cc(F)c(Cl)c2cccnc12)c1ccccc1 [Example 82, N-(5-Chloro-6-fluoro-quinolin-8-yl)-benzenesulfonamide] | 1500 nM
COc1cc(NS(=O)(=O)c2ccc(C)cc2N)c2ncccc2c1 [Example 80, 2-Amino-N-(6-methoxy-quinolin-8-yl)-4-methyl-benzenesulfonamide] | 585 nM
O=S(=O)(Nc1cc(OC(F)(F)F)cc2cccnc12)c1ccc(C(F)(F)F)nc1 [Example 232, 6-Trifluoromethyl-pyridine-3-sulfonic acid (6-trifluoromethoxy-quinolin-8-yl)-amide] | 12500 nM
O=C(OC1CCCC1)c1ccc2c(c1)-c1cc(Cl)c3cccnc3c1NS2(=O)=O [Example 533, 12-Chloro-6,6-dioxo-5,6-dihydro-6λ*6*-thia-4,5-diaza-chrysene-9-carboxylic acid cyclopentyl ester] | 990 nM
COc1ccccc1C1c2ccc3cccnc3c2NS(=O)(=O)N1C (stereo not shown) [Example 384, 1-(2-Methoxy-phenyl)-2-methyl-1,4-dihydro-2H-3-thia-2,4,5-triaza-phenanthrene 3,3-dioxide] | 1870 nM
O=S(=O)(Nc1cccc2cccnc12)c1cccc(Cl)c1Cl [Example 67, 2,3-Dichloro-N-quinolin-8-yl-benzenesulfonamide] | 7090 nM
N#Cc1ccc(S(=O)(=O)Nc2ccc(C(F)(F)F)c3cccnc23)cn1 [Example 240, 6-Cyano-pyridine-3-sulfonic acid (5-trifluoromethyl-quinolin-8-yl)-amide] | 2600 nM
COc1cc(NS(=O)(=O)c2cccnc2)c2ncccc2c1 [Example 59, Pyridine-3-sulfonic acid (6-methoxy-quinolin-8-yl)-amide] | 2800 nM
Cc1c(Cl)cccc1S(=O)(=O)Nc1cccc2cccnc12 [Example 68, 3-Chloro-2-methyl-N-quinolin-8-yl-benzenesulfonamide] | 4000 nM
CCC1c2ccc3cccnc3c2NS(=O)(=O)N1C (stereo not shown) [Example 412, 1-Ethyl-2-methyl-1,4-dihydro-2H-3-thia-2,4,5-triaza-phenanthrene 3,3-dioxide] | 2220 nM

Second part, the compound after the results:

IC50 | Compound
690 nM | O=S(=O)(Nc1cc(F)cc2cccnc12)c1ccc(Cl)cc1F [Example 95, 4-Chloro-2-fluoro-N-(6-fluoro-quinolin-8-yl)-benzenesulfonamide]
770 nM | O=S1(=O)Nc2c(ccc3cccnc23)-c2cc(Cl)ccc21 [Example 325, 9-Chloro-5H-6-thia-4,5-diaza-chrysene 6,6-dioxide]
1000 nM | COc1cc(NS(=O)(=O)c2ccc(C(F)(F)F)cc2N)c2ncccc2c1 [Example 65, 2-Amino-N-(6-methoxy-quinolin-8-yl)-4-trifluoromethyl-benzenesulfonamide]
1670 nM | O=S(=O)(Nc1ccc(Cl)c2cccnc12)c1ccccc1 [Example 25, N-(5-Chloro-quinolin-8-yl)-benzenesulfonamide]
1910 nM | O=S(=O)(Nc1cccc2cccnc12)c1cnccn1 [Example 230, Pyrazine-2-sulfonic acid quinolin-8-ylamide]
7410 nM | CN(C)CCNCc1cc(C2c3ccc4cccnc4c3NS(=O)(=O)N2C)ccc1F (stereo not shown) [Example 425, N′-[2-Fluoro-5-(2-methyl-3,3-dioxo-1,2,3,4-tetrahydro-3λ*6*-thia-2,4,5-triaza-phenanthren-1-yl)-benzyl]-N,N-dimethyl-ethane-1,2-diamine]
4690 nM | CC1c2ccc3cccnc3c2NS(=O)(=O)N1C (stereo not shown) [Example 413, 1,2-Dimethyl-1,4-dihydro-2H-3-thia-2,4,5-triaza-phenanthrene 3,3-dioxide]
979 nM | COc1ccnc2c3c(ccc12)-c1cc(C(F)(F)F)ccc1S(=O)(=O)N3 [Example 109, 1-Methoxy-9-trifluoromethyl-5H-6-thia-4,5-diaza-chrysene 6,6-dioxide]
24600 nM | CC(C)C(=O)Nc1ccccc1S(=O)(=O)Nc1cccc2cccnc12 [Example 48, N-[2-(Quinolin-8-ylsulfamoyl)-phenyl]-isobutyramide]
